The target of data set [1] is Glutamate carboxypeptidase 2 (Homo sapiens, UniProt Q04609). Nature of the data set: Inhibition of PSMA in human LNCAP cells using NAAG as substrate measured after 2 hrs by amplex red reagent based fluorescence assay. The data set is classed as cell-based.
Data set [2] can be described thus: Selectivity ratio of CC50 for human PSMA-deficient PC3 cells to CC50 for PSMA-positive human LNCAP cells. In kind it is functional.
The test system of data set [3] is CWR22R. The data set can be described thus: Antitumor activity against human 22Rv1 cells xenografted in nu/nu mouse assessed as tumor growth inhibition at 6 mg/kg, iv administered 3 times per week relative to control. The following applies: 22Rv1, iv, read-out: TGI. In kind it is functional. For orientation: Xenograft models place foreign cells or tissue in a host animal.

Data set [4] can be described thus: Cytotoxicity against HEK293T cells assessed as reduction in cell viability measured after 72 hrs by MTT assay. The data set is classed as cell-based, HEK-293T. Particulars: human. In general terms: Formazan colour is commonly taken as a measure of viable cells.
The subject of data set [5] is LNCaP. The data set can be described thus: Cytotoxicity against PSMA-positive human LNCAP cells assessed as reduction in cell viability measured after 72 hrs by MTT assay. The data set is classed as functional.
Data set [6] is described as follows: Cytotoxicity against human A549 cells assessed as reduction in cell viability measured after 72 hrs by MTT assay. The data set is classed as cell-based.
A short description of data set [7]: Cytotoxicity against human MCF7 cells assessed as reduction in cell viability measured after 72 hrs by MTT assay. In kind it is cell-based.
The subject of data set [8] is PC-3. The data set can be described thus: Cytotoxicity against PSMA-deficient human PC3 cells assessed as reduction in cell viability measured after 72 hrs by MTT assay. Particulars: PC-3, 72 h. The data set is classed as functional.
Data set [9] is described as follows: Cytotoxicity against human VA13 cells assessed as reduction in cell viability measured after 72 hrs by MTT assay. The data set is classed as cell-based. Particulars: WI-38 VA13 cells.
Data set [10] relates to CWR22R. The data set can be described thus: Cytotoxicity against PSMA-positive human 22Rv1 cells assessed as reduction in cell viability measured after 72 hrs by MTT assay. Particulars: 22Rv1, 72 h. In kind it is functional.
The nature of data set [11]: Selectivity ratio of CC50 for human VA13 cells to CC50 for PSMA-positive human LNCAP cells.
A short description of data set [12]: Selectivity ratio of CC50 for human PSMA-deficient PC3 cells to CC50 for PSMA-positive human 22Rv1 cells. The data set is classed as functional.
The nature of data set [13]: Selectivity ratio of CC50 for human VA13 cells to CC50 for PSMA-positive human 22Rv1 cells.
Data set [14] deals with CWR22R. Nature of the data set: Antitumor activity against human 22Rv1 cells xenografted in nu/nu mouse assessed as tumor growth inhibition at 10 mg/kg, iv administered 3 times per week relative to control. The data set is classed as functional. The following applies: 22Rv1, iv, read-out: TGI.

Each structure is given as a SMILES string. Some results are limits rather than exact numbers.

Chain of Glutamate carboxypeptidase 2 (Q04609 whole entry): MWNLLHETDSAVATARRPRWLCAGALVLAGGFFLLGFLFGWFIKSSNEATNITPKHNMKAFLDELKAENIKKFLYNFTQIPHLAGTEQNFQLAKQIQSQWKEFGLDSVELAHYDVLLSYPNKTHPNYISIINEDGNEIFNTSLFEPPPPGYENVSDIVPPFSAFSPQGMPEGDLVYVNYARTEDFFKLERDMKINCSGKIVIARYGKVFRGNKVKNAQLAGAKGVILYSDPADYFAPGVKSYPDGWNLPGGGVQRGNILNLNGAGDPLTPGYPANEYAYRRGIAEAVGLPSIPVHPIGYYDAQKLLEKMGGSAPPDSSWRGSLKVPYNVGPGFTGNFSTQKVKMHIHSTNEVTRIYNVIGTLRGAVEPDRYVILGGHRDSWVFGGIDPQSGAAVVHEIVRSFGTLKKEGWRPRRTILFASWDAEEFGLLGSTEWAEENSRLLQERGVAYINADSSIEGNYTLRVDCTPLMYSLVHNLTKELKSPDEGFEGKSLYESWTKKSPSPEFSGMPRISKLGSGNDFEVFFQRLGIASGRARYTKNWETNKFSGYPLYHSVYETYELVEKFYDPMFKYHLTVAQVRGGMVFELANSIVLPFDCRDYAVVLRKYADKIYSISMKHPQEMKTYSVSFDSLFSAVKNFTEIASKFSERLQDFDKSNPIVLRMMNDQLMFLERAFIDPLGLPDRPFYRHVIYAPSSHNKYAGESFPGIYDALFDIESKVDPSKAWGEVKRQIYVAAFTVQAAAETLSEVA

In the case of `[N-]=[N+]=NCCCCCC(=O)N(CCCC[C@H](NC(=O)N[C@@H](CCC(=O)O)C(=O)O)C(=O)O)Cc1ccc(Br)cc1`, in [1], inhibition was half-maximal at 170 nM (IC50). This lies in the sub-micromolar range.

For the compound `CC(=O)O[C@H]1C(=O)[C@@]2(C)[C@H]([C@H](OC(=O)c3ccccc3)[C@]3(O)C[C@H](OC(=O)[C@H](O)[C@@H](NC(=O)c4ccccc4)c4ccccc4)C(C)=C1C3(C)C)[C@]1(OC(C)=O)CO[C@@H]1C[C@@H]2O` [PACLITAXEL], the Selectivity ratio in data set [2], in data set [11], in [12] and in data set [13] was 1 in each case. Also, the inhibition in vivo at 6 mg/kg in data set [3] is 30%. For the same compound, the half-maximal cytotoxic concentration (CC50) at 72 h in data set [4], in data set [6], in data set [7] and in [9] was under 20 nM each time. The CC50 – broadly, the concentration at which the toxic effect on the cells reaches its halfway point – is 1.4 nM in [5], 2.7 nM in data set [8] and 3.9 nM in [10].

On to `NCCCC[C@H](NC(=O)N[C@@H](CCC(=O)O)C(=O)O)C(=O)O`, for which it took 1470 nM to reach half-maximal inhibition in data set [1] (IC50). For the same compound, the CC50 at 72 h in [9] is over 100000 nM.

On to `CC(=O)O[C@H]1C(=O)[C@@]2(C)[C@H]([C@H](OC(=O)c3ccccc3)[C@]3(O)C[C@H](OC(=O)[C@H](OC(=O)CCCc4cn(CCCCCC(=O)NCCCC[C@H](NC(=O)N[C@@H](CCC(=O)O)C(=O)O)C(=O)O)nn4)[C@@H](NC(=O)c4ccccc4)c4ccccc4)C(C)=C1C3(C)C)[C@]1(OC(C)=O)CO[C@@H]1C[C@@H]2O`, for which the Selectivity ratio is reported as 0.85 in [2], 0.47 in data set [11], 1.13 in [12] and 0.62 in data set [13]. In addition, the CC50 at 72 h in [4], in [6], in data set [7] and in data set [9] was under 20 nM each time. The CC50 worked out at 58 nM in data set [5], 95 nM in data set [8] and 120 nM in data set [10]. Moreover, the inhibition in vivo at 10 mg/kg in data set [14] was determined as 30%.

For `[N-]=[N+]=NCCCCCC(=O)N(CCCC[C@H](NC(=O)N[C@@H](CCC(=O)O)C(=O)O)C(=O)O)Cc1ccc(Cl)cc1`, the IC50 (usually the point on the concentration scale where inhibition reaches its midpoint) in data set [1] is 110 nM. Besides, in data set [9], the 50% cytotoxic concentration (CC50) at 72 h was over 100000 nM.

For `[N-]=[N+]=NCCCCCC(=O)N(CCCC[C@H](NC(=O)N[C@@H](CCC(=O)O)C(=O)O)C(=O)O)Cc1ccc(O)cc1`, it took 140 nM to reach half-maximal inhibition in data set [1] (IC50). Also, the CC50 at 72 h in data set [9] stood at 50200 nM.

Source of the values: ChEMBL document CHEMBL4387766, “Synthesis and biological evaluation of PSMA-targeting paclitaxel conjugates” (Bioorg Med Chem Lett, 2019).
